Experimental data: PubChem BioAssay (NCI)
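Where inhibition never reached the appropriate level, the endpoint shown equals the highest concentration tested. Otherwise, values were interpolated linearly from a five-concentration, 48-hour dose response in 96-well plates. TGI: total growth inhibition.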

Assays:
Experiment in all cases: growth of human tumour cells (NCI), 48 h
MOLT-4 leukemia = test system: MOLT-4 leukemia
RPMI-8226 leukemia = test system: RPMI-8226 leukemia
A498 renal = test system: A498 renal
CCRF-CEM leukemia = test system: CCRF-CEM leukemia
ACHN renal = test system: ACHN renal
NCI-H23 lung = test system: NCI-H23 lung
HL-60(TB) leukemia = test system: HL-60(TB) leukemia
U251 CNS = test system: U251 CNS
UACC-257 melanoma = test system: UACC-257 melanoma
MCF7 breast = test system: MCF7 breast
COLO 205 colon = test system: COLO 205 colon
CAKI-1 renal = test system: CAKI-1 renal
OVCAR-5 ovarian = test system: OVCAR-5 ovarian
HT29 colon = test system: HT29 colon
NCI-H226 lung = test system: NCI-H226 lung
DU-145 prostate = test system: DU-145 prostate
NCI-H522 lung = test system: NCI-H522 lung
A549 NSCLC = test system: A549 NSCLC
NCI/ADR-RES ovarian = test system: NCI/ADR-RES ovarian
MDA-N = test system: MDA-N

| SMILES | TGI (MOLT-4 leukemia) [µM] | TGI (RPMI-8226 leukemia) [µM] | TGI (A498 renal) [µM] | TGI (CCRF-CEM leukemia) [µM] | TGI (ACHN renal) [µM] | TGI (NCI-H23 lung) [µM] | TGI (HL-60(TB) leukemia) [µM] | TGI (U251 CNS) [µM] | TGI (UACC-257 melanoma) [µM] | TGI (MCF7 breast) [µM] | TGI (COLO 205 colon) [µM] | TGI (CAKI-1 renal) [µM] | TGI (OVCAR-5 ovarian) [µM] | TGI (HT29 colon) [µM] | TGI (NCI-H226 lung) [µM] | TGI (DU-145 prostate) [µM] | TGI (NCI-H522 lung) [µM] | TGI (A549 NSCLC) [µM] | TGI (NCI/ADR-RES ovarian) [µM] | TGI (MDA-N) [µM] |
| --- | --- | --- | --- | --- | --- | --- | --- | --- | --- | --- | --- | --- | --- | --- | --- | --- | --- | --- | --- | --- |
| CSCCC(NC(=O)Cc1ccc(C(=O)c2ccccc2)cc1)C(=O)N1CCN(CCCCN2c3ccccc3Sc3cc(N=[N+]=[N-])ccc32)CC1 (stereo not given) | > 100 | > 100 | > 100 | > 100 | > 100 | > 100 | > 100 | > 100 | > 100 | > 100 | > 100 | > 100 | > 100 | > 100 | > 100 | > 100 | > 100 | – | – | – |
| CC(C)COC(=O)c1ccc(N=Cc2ccc(C=Nc3ccc(C(=O)OCC(C)C)cc3)cc2)cc1 | > 100 | > 100 | – | – | > 100 | > 100 | > 100 | > 100 | > 100 | – | > 100 | > 100 | > 100 | > 100 | > 100 | – | > 100 | > 100 | – | – |
| C/C(=N\Nc1nc2ccccc2o1)c1ncccn1 | 0.0282 | 0.0363 | 15.8 | 0.0584 | 11.3 | 5.87 | – | 14.8 | 15.6 | – | 15.8 | 1.57 | 19.6 | 45.4 | 0.64 | > 50.8 | 22.3 | 12.1 | < 0.0335 | > 54.5 |
| O=S1(=O)OCCOS(=O)(=O)C1(Cl)Cl | > 100 | > 100 | > 100 | > 100 | – | > 100 | > 100 | – | > 100 | – | > 100 | > 100 | – | > 100 | > 100 | – | > 100 | > 100 | – | – |
| CCCC(=O)N(C)N=Nc1ccc(C(=O)OCC)cc1 | > 100 | > 100 | > 100 | > 100 | > 100 | > 100 | > 100 | > 100 | > 100 | > 100 | – | > 100 | > 100 | > 100 | > 100 | > 100 | > 100 | > 100 | – | > 100 |
| O=C1CNc2cc(N3CCOCC3)ccc2N1 | > 100 | > 100 | > 100 | > 100 | > 100 | > 100 | > 100 | > 100 | > 100 | – | > 100 | > 100 | > 100 | > 100 | > 100 | > 100 | > 100 | > 100 | > 100 | – |
| O=C1C[C@@H]2[C@@H](CCC23CCCC3)N1 | > 100 | > 100 | > 100 | > 100 | > 100 | > 100 | > 100 | > 100 | > 100 | – | > 100 | > 100 | > 100 | > 100 | > 100 | – | > 100 | > 100 | – | – |
| CC1=NNC(=O)C1C1CC(c2c[nH]c3ccccc23)=NN(c2ccccc2)C1=O (stereo not given) | > 100 | > 100 | > 100 | 72.6 | > 100 | > 100 | 92.4 | > 100 | > 100 | – | > 100 | > 100 | > 100 | > 100 | > 100 | > 100 | 77.9 | > 100 | > 100 | > 100 |
| Fc1ccc(Oc2nc3ccccc3nc2-c2ccccc2)cc1 | > 100 | > 100 | > 100 | > 100 | > 100 | > 100 | > 100 | > 100 | > 100 | > 100 | > 100 | > 100 | > 100 | > 100 | > 100 | > 100 | > 100 | – | – | – |
| C=C1C2C[C@@H]3O[C@H]4C[C@H]5O[C@@]6(C[C@@H]7O[C@]8(C[C@H](C)[C@@H]9O[C@@H]%10CC(C=O)O[C@@H]%10C[C@@H]9O8)C[C@H](C)[C@@H]7O6)C[C@H]5O[C@H]4[C@H](C)[C@H]3OC(=O)C[C@H]3CC[C@@H]4OC5[C@H]6O[C@]7(CC[C@H]8CC(=C)[C@H](CC[C@@H](C[C@H]1C)O2)O8)CC6O[C@@H]5[C@@H](O7)[C@H]4O3 (stereo not given in full) | > 1 | 0.000326 | > 1 | – | > 1 | 0.00195 | – | > 1 | – | > 1 | 0.00103 | > 1 | – | – | 0.0119 | > 1 | < 0.0001 | > 1 | – | < 0.0001 |
| O=C(NC1CCN(Cc2ccccc2)CC1)c1cccc(I)c1 | > 100 | 69.2 | > 100 | > 100 | > 100 | 63.3 | > 100 | 56.2 | 33.2 | – | 32.5 | 54.5 | > 100 | 43.7 | 78.1 | > 100 | 32.9 | > 100 | > 100 | – |
| CC(NC(=O)C(N)CC(=O)O)C(=O)OC12CC3CC(CC(C3)C1)C2 (stereo not given) | > 100 | > 100 | – | > 100 | > 100 | > 100 | – | > 100 | > 100 | > 100 | > 100 | > 100 | > 100 | > 100 | – | > 100 | > 100 | > 100 | > 100 | – |
| CCC(=O)N(c1ccccc1)C(C)CN1CCC(O)(c2cccc(C(F)(F)F)c2)CC1 (stereo not given) | 44.5 | 45.3 | 66.3 | 50.1 | > 100 | 47.5 | 39.3 | > 100 | 34.3 | – | 28.5 | > 100 | 55.4 | 27.2 | 76.5 | – | 39 | > 100 | 53.4 | 39.2 |
| CC(=O)NNc1nc(C)c(C(/C=C/c2ccc(Cl)cc2)=N\N=C(N)N)s1 | > 100 | > 100 | – | > 100 | > 100 | > 100 | > 100 | > 100 | > 100 | – | > 100 | > 100 | > 100 | > 100 | > 100 | – | > 100 | > 100 | – | – |
| O=C1N=CN=C2C=CC(Cl)=C(I)C12 (stereo not given) | > 100 | > 100 | > 100 | > 100 | > 100 | > 100 | > 100 | > 100 | > 100 | – | > 100 | > 100 | > 100 | > 100 | – | – | – | > 100 | – | – |
| O=C(CSc1nnc(Cc2ccccc2)o1)Nc1ccc(Cl)cc1[N+](=O)[O-] | > 100 | 49.6 | – | 54.4 | 25.2 | 36 | 61.5 | 34.8 | 36.3 | – | 46.4 | – | – | 49.2 | 47.6 | – | 9.26 | 35.6 | – | – |
| Cc1ccc(C(=O)O)c(/C=C2\Cc3cc(C)cc(C)c3C2=O)c1 | > 100 | > 100 | > 100 | > 100 | > 100 | – | > 100 | > 100 | > 100 | > 100 | – | > 100 | – | > 100 | > 100 | > 100 | > 100 | > 100 | – | > 100 |
| NC1=NCC(CN2CCCCC2)O1 (stereo not given) | > 100 | > 100 | – | > 100 | > 100 | – | > 100 | > 100 | > 100 | > 100 | > 100 | > 100 | – | > 100 | > 100 | – | > 100 | > 100 | > 100 | > 100 |
| CN1C(=S)CSc2ccccc21 | > 100 | > 100 | – | > 100 | > 100 | > 100 | > 100 | > 100 | > 100 | – | > 100 | > 100 | > 100 | > 100 | > 100 | – | > 100 | > 100 | – | – |
| CC(=O)c1cc(CC2Cc3cc4c(cc3C2=O)CCC4)cc2c1CCC2 (stereo not given) | 90.5 | 69.2 | > 100 | > 100 | > 100 | > 100 | 56.2 | > 100 | > 100 | > 100 | 76.2 | > 100 | > 100 | > 100 | > 100 | > 100 | > 100 | > 100 | > 100 | – |
| COC(=O)C1CC(c2ccc(Cl)cc2)=NO1 (stereo not given) | > 100 | > 100 | > 100 | > 100 | > 100 | > 100 | > 100 | > 100 | > 100 | – | > 100 | – | > 100 | > 100 | > 100 | – | > 100 | > 100 | – | – |
| Cc1cc(N(CCC#N)CCC#N)ccc1/C=C1N=C(/C=C/c2ccccc2)N(c2ccc(S(N)(=O)=O)cc2)C\1=O | > 100 | > 100 | > 100 | > 100 | > 100 | > 100 | > 100 | > 100 | > 100 | – | > 100 | > 100 | > 100 | > 100 | > 100 | – | > 100 | > 100 | – | – |
| COc1ccc(Cc2cc(OC)c(OC)c(OC)c2)cc1 | 23.9 | 39.1 | 24.6 | 16.9 | > 93.3 | 15.3 | 0.308 | 34.3 | > 71.8 | > 100 | 1.51 | > 51.7 | > 100 | 8.25 | 12 | 6.38 | 0.798 | > 100 | > 100 | – |
| O=c1sc(Nc2ccc3ccccc3c2Cl)nc2ccccc12 | – | > 100 | – | > 100 | > 100 | > 100 | > 100 | > 100 | > 100 | > 100 | > 100 | > 100 | > 100 | > 100 | – | > 100 | > 100 | > 100 | > 100 | – |
| C=CCOC1CC(n2cnc3c(N)ncnc32)OC1CO (stereo not given) | > 100 | > 100 | – | > 100 | > 100 | > 100 | > 100 | > 100 | > 100 | – | > 100 | > 100 | > 100 | > 100 | > 100 | – | > 100 | > 100 | – | – |
| CC1OC(OC2C(OC(=O)[C@]34CCC(C)(C)CC3C3=CCC5[C@@]6(C)C[C@H](O)[C@H](OC7OC(COC8OC(CO)C(O)C(O)C8O)C(O)C(O)C7O)[C@@](C)(C(=O)O)C6CC[C@@]5(C)C3(C)CC4)OCC(O)C2O)C(O)C(O)C1OC1OCC(O)C(O)C1O (stereo not given in full) | > 100 | > 100 | > 100 | > 100 | > 100 | > 100 | > 100 | > 100 | > 100 | – | > 100 | > 100 | > 100 | > 100 | > 100 | – | > 100 | > 100 | – | – |
| C=C[C@]1(C)CC(=O)C(C(C)C=O)[C@]12C(=O)Oc1cccc(C)c1C2=O (stereo not given in full) | > 100 | > 100 | 71.1 | 17.6 | 29 | 33.2 | 32.3 | 28.3 | 33.2 | 32.7 | 31.2 | 27.6 | 30.6 | 27.6 | 35 | 30.6 | 18.2 | 44.4 | – | 27.6 |
